Target: T1, 3-oxo-5-alpha-steroid 4-dehydrogenase 2 (Homo sapiens, UniProt P31213)
T1 sequence (P31213 whole entry): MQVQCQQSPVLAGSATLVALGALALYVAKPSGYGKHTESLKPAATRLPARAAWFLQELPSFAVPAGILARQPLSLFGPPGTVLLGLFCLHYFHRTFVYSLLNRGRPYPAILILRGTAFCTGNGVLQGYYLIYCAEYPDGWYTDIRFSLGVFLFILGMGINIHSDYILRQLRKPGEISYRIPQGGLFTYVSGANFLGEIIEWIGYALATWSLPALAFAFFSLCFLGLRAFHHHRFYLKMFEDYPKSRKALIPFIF
Assay: 5α-R2 Activity Assay
Procedure: The activity of the isozyme 5α-R type 2 was assayed as previously described [Hirosumi et al., J. Steroid Biochem. Mol. Biol., 52:357-363; Bratoeff et al., J. Steroid Biochem. Mol. Biol., 107:48-56].

## C[C@]12CC[C@H](OC(=O)c3ccccc3)CC1=CCC1C2CC[C@]2(C)C(=O)CCC12 (stereo partly drawn) [17-Oxaandrost-5-ene-3β-yl-benzoate (1)]
  IC50: > 100000 nM

## C[C@]12CC[C@H](OC(=O)c3ccc(F)cc3)CC1=CCC1C2CC[C@]2(C)C(=O)CCC12 (stereo partly drawn) [17-Oxaandrost-5-ene-3β-yl-p-fluorobenzoate (2)]
  IC50: 3.58 nM

From BindingDB's records for doi:10.3109/14756366.2012.729827 (National University of Mexico City, 2013)
